Like-named read-outs stand apart in the source and are kept apart here.
Molecular target: Cathepsin D (Cat D) (Homo sapiens (Human), UniProt P07339)
Experiment: In vitro enzymatic Cathepsin D (Cat D) FRET assay
Type: biochemical
Settings: read-out: CatD IC50
Method: In Vitro Enzymatic Cathepsin D (Cat D) FRET (Fluorescence Resonance Energy Transfer) Assay
Recombinant Cat D was expressed in CHO cells. The assay buffer for CathepsinD is 0.05 M citrate pH 3.5, 10% DMSO final, 5 mM CHAPS. […] The assays are effectively started by the addition of different FRET substrates (20 nM for Cat D) and the combination is incubated for one hour. The FRET assay is terminated with by addition of Tris buffer, which raises the pH to neutrality, and the fluorescence is determined. The FRET substrate is a peptide with commercially available fluorophore and quencher, on opposite sides of the BACE cleavage site. […] Proteolytic cleavage of the FRET substrate releases quenching of fluorescence (Cat D excitation 500 nm and emission 580 nm).
In addition, the cathepsin D and cathepsin E assays are described in PCT publication WO2011069934.

[1] = average IC50, cathepsin D enzyme assay

Cathepsin D (Cat D), sequence (P07339 65-412, species assumed): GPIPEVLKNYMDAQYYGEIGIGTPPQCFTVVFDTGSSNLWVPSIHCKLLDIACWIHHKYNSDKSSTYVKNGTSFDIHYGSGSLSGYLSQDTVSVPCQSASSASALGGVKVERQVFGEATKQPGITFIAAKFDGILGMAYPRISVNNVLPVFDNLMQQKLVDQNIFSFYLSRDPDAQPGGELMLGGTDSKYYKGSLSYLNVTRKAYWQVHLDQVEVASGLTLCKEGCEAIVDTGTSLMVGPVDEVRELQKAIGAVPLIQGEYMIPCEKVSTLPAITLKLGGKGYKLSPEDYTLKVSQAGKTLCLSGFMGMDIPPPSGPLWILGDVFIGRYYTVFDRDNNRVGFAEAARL

IC50 (average IC50)	IC50 [1]	Structure (SMILES)	further results
> 400 µM		COc1cnc(C(=O)Nc2cnc(F)c([C@]3(C)C[C@@H](C(F)(F)F)OC(N)=N3)c2)c(Cl)c1 [Example 69, N-(5-((4S,6S)-2-amino-4-methyl-6-(trifluoromethyl)-5,6-dihydro-4H-1,3-oxazin-4-yl)-6-fluoropyridin-3-yl)-3-chloro-5-methoxypicolinamide]	
> 400 µM		C[C@@]1(c2cc(Nc3ncc(F)c4cc(C#N)cnc34)cnc2F)C[C@@H](C(F)(F)F)OC(N)=N1 [Example 78, 8-((5-((4S,6S)-2-amino-4-methyl-6-(trifluoromethyl)-5,6-dihydro-4H-1,3-oxazin-4-yl)-6-fluoropyridin-3-yl)amino)-5-fluoro-1,7-naphthyridine-3-carbonitrile]	
	> 400 µM	NC1=N[C@](CF)(c2cc(Oc3ccccn3)ccc2F)C[C@@H](C(F)(F)F)O1 [Example 101, (4S,6S)-4-(2-fluoro-5-(pyridin-2-yloxy)phenyl)-4-(fluoromethyl)-6-(trifluoromethyl)-5,6-dihydro-4H-1,3-oxazin-2-amine]	
129 µM		N#Cc1cncc(-c2ccc(F)c([C@]3(CF)C[C@@H](C(F)(F)F)OC(N)=N3)c2)c1 [Example 103, 5-(3-((4S,6S)-2-amino-4-(fluoromethyl)-6-(trifluoromethyl)-5,6-dihydro-4H-1,3-oxazin-4-yl)-4-fluorophenyl)nicotinonitrile]	
	220 µM	CC#Cc1cncc(-c2ccc(F)c([C@]3(CF)C[C@@H](C(F)(F)F)OC(N)=N3)c2)c1 [Example 104, (4S,6S)-4-(2-fluoro-5-(5-(prop-1-yn-1-yl)pyridin-3-yl)phenyl)-4-(fluoromethyl)-6-(trifluoromethyl)-5,6-dihydro-4H-1,3-oxazin-2-amine]	
	> 400 µM	C#CCOC1CCN(C(=O)Nc2ccc(F)c([C@]3(C)C[C@@H](C(F)(F)F)OC(N)=N3)c2)CC1 [Example 120, N-(3-((4S,6S)-2-amino-4-methyl-6-(trifluoromethyl)-5,6-dihydro-4H-1,3-oxazin-4-yl)-4-fluorophenyl)-4-(prop-2-yn-1-yloxy)piperidine-1-carboxamide]	
	> 14.8 µM	C[C@@]1(c2cc(NC(=O)N3CCC(C(F)F)CC3)ccc2F)C[C@@H](C(F)(F)F)OC(N)=N1 [Example 122, N-(3-((4S,6S)-2-amino-4-methyl-6-(trifluoromethyl)-5,6-dihydro-4H-1,3-oxazin-4-yl)-4-fluorophenyl)-4-(difluoromethyl)piperidine-1-carboxamide]	
	810 µM	C[C@@]1(c2cc(NC(=O)N3CC=C(C#CC4CC4)CC3)ccc2F)C[C@@H](C(F)(F)F)OC(N)=N1 [Example 124, N-(3-((4S,6S)-2-amino-4-methyl-6-(trifluoromethyl)-5,6-dihydro-4H-1,3-oxazin-4-yl)-4-fluorophenyl)-4-(cyclopropylethynyl)-5,6-dihydropyridine-1(2H)-carboxamide]	

Continued, compound first:

Structure (SMILES)	IC50 (average IC50)	IC50 [1]	further results
C[C@@]1(c2cc(NC(=O)c3ccc(C#N)cn3)cnc2F)C[C@@H](C(F)(F)F)OC(N)=N1 [Example 62, N-(5-((4S,6S)-2-amino-4-methyl-6-(trifluoromethyl)-5,6-dihydro-4H-1,3-oxazin-4-yl)-6-fluoropyridin-3-yl)-5-cyanopicolinamide]	> 400 µM		
COc1ccc(C(=O)Nc2cnc(F)c([C@]3(C)C[C@@H](C(F)(F)F)OC(N)=N3)c2)nc1 [Example 63, N-(5-((4S,6S)-2-amino-4-methyl-6-(trifluoromethyl)-5,6-dihydro-4H-1,3-oxazin-4-yl)-6-fluoropyridin-3-yl)-5-methoxypicolinamide]		> 400 µM	
COc1cnc(C(=O)Nc2cnc(F)c([C@]3(C)C[C@@H](C(F)(F)F)OC(N)=N3)c2)cn1 [Example 70, N-(5-((4S,6S)-2-amino-4-methyl-6-(trifluoromethyl)-5,6-dihydro-4H-1,3-oxazin-4-yl)-6-fluoropyridin-3-yl)-5-methoxypyrazine-2-carboxamide]		397 µM	
C#CCOc1cnc(C(=O)Nc2cnc(F)c([C@]3(C)C[C@@H](C(F)(F)F)OC(N)=N3)c2)cn1 [Example 73, N-(5-((4S,6S)-2-amino-4-methyl-6-(trifluoromethyl)-5,6-dihydro-4H-1,3-oxazin-4-yl)-6-fluoropyridin-3-yl)-5-(prop-2-yn-1-yloxy)pyrazine-2-carboxamide]			IC50 (average): 1690 µM
COc1cnc(C(=O)Nc2ccc(F)c([C@]3(C)C[C@@H](C(F)(F)F)OC(N)=N3)n2)c(Cl)c1 [Example 80, N-(6-((4S,6S)-2-amino-4-methyl-6-(trifluoromethyl)-5,6-dihydro-4H-1,3-oxazin-4-yl)-5-fluoropyridin-2-yl)-3-chloro-5-methoxypicolinamide]		658 µM	
C[C@@]1(c2nc(NC(=O)c3ncc(C(F)(F)F)cc3Cl)ccc2F)C[C@@H](C(F)(F)F)OC(N)=N1 [Example 81, N-(6-((4S,6S)-2-amino-4-methyl-6-(trifluoromethyl)-5,6-dihydro-4H-1,3-oxazin-4-yl)-5-fluoropyridin-2-yl)-3-chloro-5-(trifluoromethyl)-picolinamide]	> 400 µM		
C[C@@]1(c2nc(NC(=O)c3ncc(C#N)cc3Cl)ccc2F)C[C@@H](C(F)(F)F)OC(N)=N1 [Example 82, N-(6-((4S,6S)-2-amino-4-methyl-6-(trifluoromethyl)-5,6-dihydro-4H-1,3-oxazin-4-yl)-5-fluoropyridin-2-yl)-3-chloro-5-cyanopicolinamide]	> 400 µM		
Cc1cc(C#N)cnc1C(=O)Nc1ccc(F)c([C@]2(C)C[C@@H](C(F)(F)F)OC(N)=N2)n1 [Example 84, N-(6-((4S,6S)-2-amino-4-methyl-6-(trifluoromethyl)-5,6-dihydro-4H-1,3-oxazin-4-yl)-5-fluoropyridin-2-yl)-5-cyano-3-methylpicolinamide]	900 µM		
C[C@@]1(c2nc(NC(=O)c3ncc(Br)cc3Cl)ccc2F)C[C@@H](C(F)(F)F)OC(N)=N1 [Example 86, N-(6-((4S,6S)-2-amino-4-methyl-6-(trifluoromethyl)-5,6-dihydro-4H-1,3-oxazin-4-yl)-5-fluoropyridin-2-yl)-5-bromo-3-chloropicolinamide]	636 µM		
C[C@@]1(c2nc(Nc3ncc(F)c4cc(C#N)cnc34)ccc2F)C[C@@H](C(F)(F)F)OC(N)=N1 [Example 89, 8-((6-((4S,6S)-2-amino-4-methyl-6-(trifluoromethyl)-5,6-dihydro-4H-1,3-oxazin-4-yl)-5-fluoropyridin-2-yl)amino)-5-fluoro-1,7-naphthyridine-3-carbonitrile]	229 µM		
NC1=N[C@](CF)(c2cc(NC(=S)c3ccc(Cl)cn3)ccc2F)C[C@@H](C(F)(F)F)O1 [Example 91, N-(3-((4S,6S)-2-amino-4-(fluoromethyl)-6-(trifluoromethyl)-5,6-dihydro-4H-1,3-oxazin-4-yl)-4-fluorophenyl)-5-chloropyridine-2-carbothioamide]			IC50 (average): 805 µM
NC1=N[C@](CF)(c2cc(Oc3ncccc3F)ccc2F)C[C@@H](C(F)(F)F)O1 [Example 94]	2220 µM		
CNC(=O)c1ccnc(Oc2ccc(F)c([C@]3(CF)C[C@@H](C(F)(F)F)OC(N)=N3)c2)c1 [Example 96, 2-(3-((4S,6S)-2-amino-4-(fluoromethyl)-6-(trifluoromethyl)-5,6-dihydro-4H-1,3-oxazin-4-yl)-4-fluorophenoxy)-N-methylisonicotinamide]	> 400 µM		
NC1=N[C@](CF)(c2cc(Oc3ncccc3Cl)ccc2F)C[C@@H](C(F)(F)F)O1 [Example 97, (4S,6S)-4-(5-((3-chloropyridin-2-yl)oxy)-2-fluorophenyl)-4-(fluoromethyl)-6-(trifluoromethyl)-5,6-dihydro-4H-1,3-oxazin-2-amine]	1010 µM		
NC1=N[C@](CF)(c2cc(Oc3cc(C(F)(F)F)ccn3)ccc2F)C[C@@H](C(F)(F)F)O1 [Example 99, (4S,6S)-4-(2-Fluoro-5-((4-(trifluoromethyl)pyridin-2-yl)oxy)phenyl)-4-(fluoromethyl)-6-(trifluoromethyl)-5,6-dihydro-4H-1,3-oxazin-2-amine]	> 400 µM		
C[C@@]1(c2cc(NC(=O)N3CCc4ccccc4C3)ccc2F)C[C@@H](C(F)(F)F)OC(N)=N1 [Example 121, N-(3-((4S,6S)-2-amino-4-methyl-6-(trifluoromethyl)-5,6-dihydro-4H-1,3-oxazin-4-yl)-4-fluorophenyl)-3,4-dihydroisoquinoline-2(1H)-carboxamide]		3610 µM	
NC1=N[C@](CF)(c2cc(C#Cc3ccc(OC(F)F)cn3)ccc2F)C[C@@H](C(F)(F)F)O1 [Example 127, (4S,6S)-4-(5-((5-(difluoromethoxy)pyridin-2-yl)ethynyl)-2-fluorophenyl)-4-(fluoromethyl)-6-(trifluoromethyl)-5,6-dihydro-4H-1,3-oxazin-2-amine]			IC50 (average): 605 µM
COc1ccc(C(=O)Nc2cccc([C@]3(CF)C[C@@H](C(F)(F)F)OC(N)=N3)c2)nc1 [Example 145, N-(3-((4S,6S)-2-amino-4-(fluoromethyl)-6-(trifluoromethyl)-5,6-dihydro-4H-1,3-oxazin-4-yl)phenyl)-5-methoxypicolinamide]	3520 µM		
NC1=N[C@](CF)(c2cc(NC(=O)c3ccc(Br)cn3)cc(F)c2F)C[C@@H](C(F)(F)F)O1 [Example 157, N-(3-((4S,6S)-2-amino-4-(fluoromethyl)-6-(trifluoromethyl)-5,6-dihydro-4H-1,3-oxazin-4-yl)-4,5-difluorophenyl)-5-bromopicolinamide]		> 400 µM	
NC1=N[C@](CF)(c2cc(NC(=O)c3ccc(C#CC4CC4)cn3)cc(F)c2F)C[C@@H](C(F)(F)F)O1 [Example 158, N-(3-((4S,6S)-2-amino-4-(fluoromethyl)-6-(trifluoromethyl)-5,6-dihydro-4H-1,3-oxazin-4-yl)-4,5-difluorophenyl)-5-(cyclopropylethynyl)picolinamide]		> 400 µM	

From US9296734B2 (AMGEN INC., priority 2013, dated 2016)
